Data taken from patent US4237045A, “N-substituted cyclopeptide derivatives and preparation thereof” (American Home Products Corporation, priority 1978, dated 1980).

Legend:
Klebsiella pneumoniae = experiment: serial broth dilution test, growth inhibition; format: cell-based; settings: nutrient broth, incubated at 37° C. for 2 days, examined for presence of growth
Protocol: (§1) Grove and W. A. Randall in "Assay Methods of Antibiotics", Med. Encycl. Inc., New York, 1955.
(§2) For example, by employing a test like the serial broth dilution, see Grove and Randall, cited above, in which dilutions of the compounds of this invention in nutrient broth are inoculated with the microorganisms or fungi, described above, incubated at 37° C. for 2 days, respectively, and examined for the presence of growth, it may be shown that isomers L and M of cyclo-[N-[1-(1-methylethyl)-2-cyclohexylamino-2-oxo-ethyl]-alanyl-phenylalanyl-valylglycyl-leucyl-methionyl] (described in Example 2) are able to inhibit growth totally in this system of Klebsiella pneumoniae and Serratia marcescens at a concentration of 100/mcg/ml.

Serratia marcescens = experiment: serial broth dilution test, growth inhibition; format: cell-based; settings: nutrient broth, incubated at 37° C. for 2 days, examined for presence of growth
Protocol: as §1, §2

CSCC[C@@H]1NC(=O)[C@H](CC(C)C)NC(=O)CNC(=O)[C@H](C(C)C)NC(=O)[C@H](Cc2ccccc2)NC(=O)[C@H](C)N(C(C(=O)NC2CCCCC2)C(C)C)C1=O (stereo partly drawn) [isomer L, Cyclo[N-[1-(1-methylethyl)-2-cyclohexylamino-2-oxo-ethyl]-alanyl-phenylalanyl-valyl-glycyl-leucyl-methionyl]]
concentration able to inhibit growth totally (Klebsiella pneumoniae): 100 µg/mL
concentration able to inhibit growth totally (Serratia marcescens): 100 µg/mL
